Laboratory results: patent US20230285570A1, “THERAPEUTICALLY USEFUL CURE-PRO MOLECULES FOR E3 LIGASE MEDIATED DEGRADATION OF PROTEINS, AND METHODS OF MAKING AND USING THEM” (CORNELL UNIVERSITY, priority 2020, published 2023)
Entries after “also recorded” stand apart in the source; their conditions may differ.

Assays:
Format in all cases: cell-based
Molm-13 cells = test: CellTiter-Glo cell viability, Molm-13 cells
Procedure: CellTiter-Glo® 2.0 Cell Viability Assay (Promega) was carried out following the manufacturer's recommendations. Cells were seeded at a density of 1000 cells/well in a white 96 well plates (Corning, #3917) in a total volume of 100 μl with respective monomers, combinations of BRD ligands together with E3 ligase ligands or vehicle control treatment. After a 72 h incubation, 100 ul of the CellTiter-Glo® substrate was added per well and luminescence was read on a Spectramax M5 (Molecular Devices). Dose-response curves were generated using Graphpad Prism software.
Molm-13 cells (1×10^4) were treated for 24 (FIG. 77A) or 72 (FIG. 77B) hours were treated in white 96 well plates with the compounds (10 nM-10 μM solubilized in DMSO). After indicated times cell viability was assessed using the CellTiter-Glo® Luminescent Cell Viability Assay (Promega) and the signal detected on a SpectraMax M5 (Molecular Devices).

caspase 3/7 [1] = test: Caspase-Glo 3/7 assay, Molm-13 cells
Procedure: (§1) Caspase-glo® assay (Promega) was conducted following the manufacturer's recommendations. Cells were seeded at a density of 5000 cells/well in a white 96 well plates (Corning, #3917) in a total volume of 100 μl with respective monomers, combinations of BRD ligands together with E3 ligase ligands or vehicle control treatment. After a 24 h incubation, 100 μl of the […] substrate was added per well and luminescence was read on a Spectramax M5 (Molecular Devices).
(§2) Molm-13 (FIG. 76A) or Namalwa (FIG. 76B) cells (5×10^4) were treated for 24 hours with the compounds solubilized in DMSO in white 96 well plates (10 nM-10 μM solubilized in DMSO). FIG. 76 is a bar graph depiction of fold increase of apoptosis assessed via caspase 3/7 activity using the Caspase-Glo assay (Promega) described above.

BRD4 [2] = molecular target: T1, BRD4 (Homo sapiens, UniProt O60885); test: CURE-PRO-mediated BRD4 degradation in MCF7 cells, WES (ProteinSimple); set-up: endogenous in cells
Procedure: WES Simple analysis was performed on WES system (ProteinSimple-Biotechne) according to the manufacturer's instructions. Total protein concentrations of cell lysates were determined by the Pierce BCA kit (Thermo Fisher). 3 μL of 0.3 μg/μL of the protein lysate was loaded onto a 12- to 230-kDa WES assay plate (ProteinSimple) where 300 nL sample was withdrawn through a capillary, subjected to electrophoretic separation of proteins by size, and followed by the simultaneous, HRP-based detection of proteins using the Anti-Rabbit Detection Module (Proteinsimple: #DM-001). The electropherograms were checked then the automatic peak detection was manually corrected if it was required.
MCF7 cells (3×10^6) were treated for 4-24 hours continually (FIG. 72), or treated for 4 h, washed and incubated for a further 4-24 h with the compounds solubilized in DMSO. Compounds were added at 10 μM each. Cells were washed, lysed, and clarified by centrifugation. The total protein concentration was quantified by the BCA method (ThermoFisher Sciences). Standardized protein samples were electrophoresed and imaged as described in the WES Proteinsimple section above. FIG. 69 depicts the CURE-PRO-mediated BRD4 degradation for the BRD-E50 monomer, and VHL ligand, 8305.
MCF7 cells (3×10^6) were treated for 24 hours with the compounds solubilized in DMSO. CURE-PRO monomers were added at 10 μM each and the proteasomal inhibitors at 1 μM. Standardized protein samples were electrophoresed and imaged as described in the WES Proteinsimple section above. FIGS. 73 and 75 depicts the dependence of the proteasome for CURE-PRO-mediated BRD4 degradation.
MCF7 cells (3×10^6) were treated for 24 hours with the compounds solubilized in DMSO. CURE-PRO monomers were added at 10 μM. FIG. 74 depicts the CURE-PRO-mediated BRD4 degradation for the BRD-E50 monomer, and VHL ligand, 8305 combined in a 1:1 ratio after 24 h.

caspase 3/7 [3] = test: Caspase-Glo 3/7 assay, Namalwa cells; details: 24 h
Procedure: as §1
Namalwa cells (5×10^4) were treated for 24 hours with the compounds solubilized in DMSO. FIG. 57 is a bar graph depiction of fold increase of apoptosis assessed via caspase 3/7 activity using the Caspase-Glo assay (Promega) described above.
as §2

BRD4 [4] = molecular target: T1, BRD4; test: CURE-PRO-mediated BRD4 degradation in MCF7 cells, Western blot; set-up: endogenous in cells
Procedure: Namalwa, Ramosm HeLa, MCF7, or HT29 HCT116 cells (2.5-3×10^6) were treated for 24 hours with the indicated compounds solubilized in DMSO. The cells were washed in ice-cold PBS and were then lysed in RIPA lysis buffer (150 mM NaCl, 5 mM EDTA, 1% NP-40, 0.5% sodium deoxycholate, 0.1% SDS, 50 mM Tris, pH 8.0.) with Roche protease inhibitor complete cocktail and phosphatase inhibitors (10 mM sodium fluoride, 10 mM sodium pyrophosphate, 1 mM sodium orthovanadate and 20 mM β-glycerophosphate). The total protein concentrations were determined by Bradford Protein Assay (Pierce) and 10-20 μg of protein was loaded onto 4-15% Tris-Glycine gradient gels (Biorad). After standard gel electrophoresis, the separated proteins were transferred to PVDF membrane by wet transfer. The immunoblots were then blocked for 1 hour in 5% skim milk in TBST or 5% BSA in TBST, according to manufacturer's instructions, before an overnight incubation at 4° C. with indicated antibodies and membranes. Membranes were then incubated with the appropriate horseradish peroxidase-conjugated secondary antibodies (1:5,000 dilution) for 1 h at room temperature and the bands were visualized using the Clarity Max Western ECL Substrate (Biorad) and the ChemiDoc Imaging System (Biorad). Signal was detected with ECL Western Blotting Substrate (Pierce) and X-ray film processed with a Konica SRX-101 X-ray film processor or captured by Bio-Rad's Chemidoc Imaging system.
MCF7 cells (3×10^6) were treated for 24 h with the compounds solubilized in DMSO. Compounds were added at 100 nM-10 μM. Standardized protein samples were electrophoresed and imaged as described in the Immunoblotting section above. FIG. 69 depicts the CURE-PRO-mediated BRD4 degradation for the BRD-E9 monomer and VHL ligands 8305 combined in a 1:1 ratio, and FIG. 70 depicts the CURE-PRO-mediated BRD4 degradation for the BRD-E20 monomer and 8305.
MCF7 cells (3×10^6) were treated for 24 h with the compounds solubilized in DMSO. Compounds were added at 1 μM-10 μM. Standardized protein samples were electrophoresed and imaged as described in the Immunoblotting section above. FIG. 71 depicts the CURE-PRO-mediated BRD4 degradation for the BRD-E50 monomer and VHL ligands 8305 and 8304 combined in a 1:1 ratio.

BRD4 [5] = molecular target: T1, BRD4; test: Summary of BRD4 degradation by CURE-PRO pairs, estimated from Western Blot or WES; set-up: endogenous in cells; details: Table 3, aryl-boronic acid BRD4 ligand + 8305
How it was run: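 Degradation read-out from immunoblot with ECL, or WES capillary electrophoresis with HRP detection, of RIPA lysates. Cells (Namalwa, Ramos, HeLa, MCF7, HT29 or HCT116) were exposed to DMSO-solubilized compounds for 24 h; a check mark marks 30% to 70% or higher degradation.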

HCT116 cells = test: MTT toxicity of E3 ligase CURE-PRO monomers, HCT116 cells; details: monomer alone, HCT116, 10 nM-30 μM, 24 h
Procedure: CURE-PRO ligands for the E3 ubiquitin ligases were assessed for toxicity by MTT assays as described above. CURE-PRO monomers (10 nM-30 μM) were solubilized in DMSO and added in triplicate to cells (1×10^5 cells/well) seeded in 96 well plates on the previous day. HCT116 (FIG. 105A), MCF7 (FIG. 105B), and HT29 cells (FIG. 105C) were treated with the CURE-PRO monomers for 24 h.

[6] = single monomer alone, MCF7, 10 μM

Row | Structure (SMILES) | loss of cell viability versus monomers alone (Molm-13 cells; co-dosed 1:1 with VHL ligand 8305, Molm-13, 24 h and 72 h, 10 nM-10 μM) | cell viability (Molm-13 cells; co-treated with VHL298, Molm-13, 24 h and 72 h) | caspase 3/7 activation (caspase 3/7 [1]; 1:1 with VHL ligand 8305, Molm-13, 24 h, 10 nM-10 μM) | caspase 3/7 activation (caspase 3/7 [1]; co-treated with VHL298, Molm-13, 24 h) | BRD4 degradation (BRD4 [2]; 1:1 with VHL ligand 8305, MCF7, 10 μM each, 4-24 h) | BRD4 degradation (BRD4 [2]; co-incubated with VHL ligand 8304, MCF7, 10 μM each) | BRD4 degradation (BRD4 [2]; [6]) | BRD4 degradation after VHL298 pre-incubation (BRD4 [2]; with 8305, 10 μM each, VHL298 preincubated at equimolar concentration, MCF7) | caspase 3/7 activation (caspase 3/7 [3]; 1:1 with VHL ligand 8305, Namalwa, 10 nM-10 μM) | caspase 3/7 activation (caspase 3/7 [3]; co-treated with VHL298, Namalwa) | BRD4 degradation (BRD4 [4]; 1:1 with VHL ligand 8304, MCF7, 24 h, 1 μM-10 μM) | BRD4 degradation (BRD4 [4]; 1:1 with VHL ligand 8305, MCF7, 24 h, 100 nM-10 μM) | Degradation of BRD4, combination with VHL ligand 8305 (BRD4 [5]) | loss of viability (MTT) (HCT116 cells)
1 | CCNC(=O)C[C@@H]1N=C(c2ccc(Cl)cc2)c2cc(B(O)O)ccc2-n2c(C)nnc21 [BRD-E50, ((4S)-6-(4-chlorophenyl)-4-(2-(ethylamino)-2-oxoethyl)-1-methyl-4H-benzo[f][1,2,4]triazolo[4,3-a][1,4]diazepin-8-yl)boronic acid] | marked loss in cell viability when compared to monomer treatment alone; also recorded: a greater loss of cell viability | decreases levels of cell viability to similar levels of BRD-E50 treatment alone | demonstrates activation of caspase 3/7; also recorded: marked caspase activation | does not increase caspase activity | directs degradation of BRD4 as early as 4 h; also recorded: marked BRD4 degradation after 4 h | No degradation is noted | there is no degradation of BRD4 | attenuates CURE-PRO mediated BRD4 degradation; also recorded: No degradation is noted; also recorded: inhibited CURE-PRO mediated degradation; also recorded: inhibits the degradation of BRD4 | demonstrates activation of caspase 3/7; also recorded: marked caspase activation | does not increase caspase activity | but not when VHL ligand 8304 is co-incubated; also recorded: no degradation is noted | there is degradation of BRD4; also recorded: marked BRD4 degradation | √ (A black check mark indicates efficacy of 30% to 70% or higher protein degradation) | –
2 | Cc1ncsc1-c1ccc(CNC(=O)[C@@H]2C[C@@H](O)CN2C(=O)[C@@H](NC(=O)c2cccc(O)c2O)C(C)(C)C)cc1 [compound 8305, (2S,4R)-1-((S)-2-(2,3-dihydroxybenzamido)-3,3-dimethylbutanoyl)-4-hydroxy-N-(4-(4-methylthiazol-5-yl)benzyl)pyrrolidine-2-carboxamide] | – | – | – | – | – | – | there is no degradation of BRD4 | – | – | – | – | – | – | loss of viability only noted at higher concentrations (30 μM); also recorded: Toxicity at higher concentrations
